Key:
[1] = system: Blumeria graminis f.sp. hordei; assay: Blumeria test (barley) / preventive; assay type: in vivo, Blumeria graminis f.sp. hordei on barley; settings: evaluated 7 days after inoculation
Description: (§1) • Solvent: 49 parts by weight of N,N-dimethylacetamide • Emulsifier: 1 part by weight of alkylaryl polyglycol ether
(§2) To produce a suitable preparation of active compound, 1 part by weight of active compound or active compound combination is mixed with the stated amounts of solvent and emulsifier, and the concentrate is diluted with water to the desired concentration.
(§3) To test for preventive activity, young plants are sprayed with the preparation of active compound or active compound combination at the stated rate of application.
After the spray coating has been dried, the plants are dusted with spores of Blumeria graminis f.sp. hordei.
The plants are placed in the greenhouse at a temperature of approximately 18° C. and a relative atmospheric humidity of approximately 80% to promote the development of mildew pustules.
The test is evaluated 7 days after the inoculation. 0% means an efficacy which corresponds to that of the untreated control, while an efficacy of 100% means that no disease is observed.

Leptosphaeria nodorum = Leptosphaeria nodorum test (wheat) / preventive; assay type: in vivo, Leptosphaeria nodorum on wheat; settings: evaluated 8 days after inoculation
Description: as §1, §2, §3
After the spray coating has been dried, the plants are sprayed with a spore suspension of Leptosphaeria nodorum. The plants remain for 48 hours in an incubation cabinet at approximately 20° C. and a relative atmospheric humidity of approximately 100%.
The plants are placed in the greenhouse at a temperature of approximately 22° C. and a relative atmospheric humidity of approximately 80%.
The test is evaluated 8 days after the inoculation. 0% means an efficacy which corresponds to that of the untreated control, while an efficacy of 100% means that no disease is observed.

Compound	Efficacy in % found ([1]; 5 ppm a.i.)	Efficacy in % found (Leptosphaeria nodorum; 25 ppm a.i.)	further results
CP(=O)(O)CCC(N)C(=O)O (stereo not shown) [(B-13.3), glufosinate-ammonium]	0%	–	–
O=C(O)CNCP(=O)(O)O [(B-14.1), glyphosate]	11%	–	–
CCOC(=O)C1=NOC(c2ccccc2)(c2ccccc2)C1 [(D-19), isoxadifen-ethylen]	–	17%	–
CCOC(=O)C1=NN(c2ccc(Cl)cc2Cl)C(C)(C(=O)OCC)C1 [(D-23), mefenpyr-diethyl]	–	17%	–
COc1ccccc1C(=O)NS(=O)(=O)c1ccc(C(=O)NC2CC2)cc1 [(D-62), N-{[4-(cyclopropylcarbamoyl)phenyl]-sulfonyl}-2-methoxybenzamide]	–	0%	–
CC(C)c1ccc(Cl)cc1CN(C(=O)c1c(C(F)F)nn(C)c1F)C1CC1 [compound A5, N-(5-chloro-2-isopropylbenzyl)-N-cyclopropyl-3-(difluoromethyl)-5-fluoro-1-methyl-1H-pyrazole-4-carboxamide]	–	–	Efficacy in % found (Leptosphaeria nodorum; 31 ppm a.i.): 50%; Efficacy in % found ([1]; 62.5 ppm a.i.): 56%
